pIC50: −log10 of the molar value.
Legend:
[1] = biological target: T1, recombinant human Cox-1 (r-hu Cox1) (Homo sapiens, UniProt P23219); test: Recombinant human PGHS-1 enzyme assay (RHUCX1); assay type: biochemical
T1 construct: made in house; host or cells: baculovirus/Sf9 insect cells (microsomes)
Outline: (§1)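 PGE2 production measured by enzyme immunoassay with standards in the same milieu. Inhibition was computed versus control group mean and IC50 estimated by linear regression.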

[2] = biological target: T2, recombinant human Cox-2 (r-hu Cox-2) (Homo sapiens, UniProt P35354); test: Recombinant human PGHS-2 enzyme assay (RHUCX2); assay type: biochemical; conditions: for inhibition at 0.1 µM / inhibition at 1 µM / inhibition at 10 µM / inhibition at 0.01 µM: read-out: RHUCX2 % Inh. at Dose; for pIC50: read-out: RHUCX2 IC50 (parenthetical value)
T2 construct: made in house; host or cells: baculovirus/Sf9 insect cells (microsomes)
T2 sequence (P35354 18-604): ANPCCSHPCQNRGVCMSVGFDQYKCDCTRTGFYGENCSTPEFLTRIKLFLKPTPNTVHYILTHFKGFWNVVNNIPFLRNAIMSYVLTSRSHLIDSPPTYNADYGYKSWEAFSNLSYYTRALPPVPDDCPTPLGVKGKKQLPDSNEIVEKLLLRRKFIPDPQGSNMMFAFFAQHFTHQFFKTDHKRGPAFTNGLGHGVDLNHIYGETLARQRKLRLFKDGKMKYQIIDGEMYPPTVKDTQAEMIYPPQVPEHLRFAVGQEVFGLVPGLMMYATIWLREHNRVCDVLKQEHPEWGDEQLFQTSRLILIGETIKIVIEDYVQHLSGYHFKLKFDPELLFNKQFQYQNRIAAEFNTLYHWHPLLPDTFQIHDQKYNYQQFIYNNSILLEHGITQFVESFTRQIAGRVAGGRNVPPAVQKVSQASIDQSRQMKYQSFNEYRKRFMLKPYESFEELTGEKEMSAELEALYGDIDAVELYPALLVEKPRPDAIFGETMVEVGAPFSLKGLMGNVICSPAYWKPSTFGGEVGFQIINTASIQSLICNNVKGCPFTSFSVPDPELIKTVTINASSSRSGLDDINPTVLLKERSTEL
Outline: as §1

[3] = biological target: T3, human amnionic whole cell cyclooxygenase-2 (WISH cells) (Homo sapiens, UniProt P35354); test: IL-1β induced PGE2 production in WISH cells; assay type: cell-based; conditions: for pIC50: read-out: Wish IC50 (parenthetical value)
T3 construct: endogenous in cells; host or cells: human amnionic WISH cells, induced with IL-1beta
T3 sequence (P35354 18-604): T2 sequence (P35354 18-604)
Description: EIA reagents for prostaglandin determination were purchased from Perseptive Diagnostics, (Cambridge, Mass.). Prostaglandin E2 (PGE2) levels in lavage fluids were determined after the samples were dried under nitrogen and reconstituted with assay buffer. PGE2 levels in enzyme assays or cell culture media were measured against standards prepared in the same milieu. The immunoassays were conducted as recommended by the manufacturer. The EIA was conducted in 96 well microtiter plates (Nunc Roskilde, Denmark) and optical density was measured using a microplate reader (Vmax, Molecular Devices Corp., Menlo Park, Calif.).
Human amnionic WISH cells were grown to 80% confluence in 48 well plates. Following removal of the growth medium and two washings with Geys Balanced Salt Solutn, 5 ng IL-1β /ml (UBI, Lake Placid, N.Y.) was added to the cells with or without test compound in DMSO (0.01% v/v) in Neuman-Tytell Serumless Medium (GIBCO, Grand Island, N.Y.).

[4] = 100 μM, read-out: RHUCX1 % Inh. at Dose
[5] = read-out: Wish % Inhib. at Dose

T1 sequence (P23219 24-599): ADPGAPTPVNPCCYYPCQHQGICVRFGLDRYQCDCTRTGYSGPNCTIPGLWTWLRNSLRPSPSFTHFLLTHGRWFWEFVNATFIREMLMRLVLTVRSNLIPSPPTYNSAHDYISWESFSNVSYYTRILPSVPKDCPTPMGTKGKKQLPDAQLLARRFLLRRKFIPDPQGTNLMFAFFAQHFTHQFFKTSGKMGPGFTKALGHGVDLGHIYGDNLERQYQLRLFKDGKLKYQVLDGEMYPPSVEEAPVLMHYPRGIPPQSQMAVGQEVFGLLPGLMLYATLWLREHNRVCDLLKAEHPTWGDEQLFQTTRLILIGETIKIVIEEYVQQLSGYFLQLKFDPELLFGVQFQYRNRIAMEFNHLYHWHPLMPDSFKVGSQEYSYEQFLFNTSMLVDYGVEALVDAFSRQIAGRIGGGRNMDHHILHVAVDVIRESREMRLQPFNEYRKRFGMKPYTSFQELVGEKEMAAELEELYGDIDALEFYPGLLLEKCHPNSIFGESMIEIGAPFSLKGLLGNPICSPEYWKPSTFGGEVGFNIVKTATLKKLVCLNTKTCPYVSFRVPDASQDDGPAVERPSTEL

SMILES | inhibition at 100 µM [1, 4] [%] | inhibition at 0.1 µM [2] [%] | inhibition at 1 µM [2] [%] | pIC50 [3] | melting point [°C] | pIC50 [2] | further results
CS(=O)(=O)c1ccc(-c2cnn(Cc3ccccc3)c(=O)c2-c2ccc(Cl)c(Cl)c2)cc1 [Example 65, 2-Benzyl-4-(3,4-dichlorophenyl)-5-[4-(methylsulfonyl)phenyl]-3(2H)-pyridazinone] | 13 | 65 | 98 | 7.70 | 161 to 163 |  | 
CS(=O)(=O)c1ccc(-c2cnn(C3C4CC5CC(C4)CC3C5)c(=O)c2-c2ccc(F)cc2)cc1 (stereo not shown) [Example 132, 2-(2-Adamantyl)-4-(4-fluorophenyl)-5-[4-(methylsulfonyl)phenyl]-3(2H)-pyridazinone] |  | 43 | 88 |  | 195 to 197 |  | inhibition at 1 µM ([1]; 1 μM, read-out: RHUCX1 % Inh. at Dose): 93%; inhibition at 0.01 µM ([3]; 0.01 μM, read-out: Wish % Inhib. at Dose): 36%; inhibition at 0.1 µM [3, 5]: 100%
CS(=O)(=O)c1ccc(-c2cnn(-c3ccc(F)c(F)c3)c(=O)c2Cc2ccc(F)cc2)cc1 [Example 171, 2-(3,4-Difluorophenyl)-4-(4-fluorobenzyl)-5-[4-(methylsulfonyl)phenyl]-3(2H)-pyridazinone] | 0 | 61 | 74 |  | 157 to 159 |  | inhibition at 10 µM [2]: 82%; inhibition at 0.1 µM [3, 5]: 56%; inhibition at 1 µM [3, 5]: 90%
CC(C)CSCc1c(-c2ccc(S(C)(=O)=O)cc2)cnn(-c2ccc(F)cc2)c1=O [Example 198, 2-(4-Fluorophenyl)-4-(2-methylpropylthiomethyl)-5-[4-(methylsulfonyl)phenyl]-3(2H)-pyridazinone] | 10 | 23 | 68 | 6.74 | 45 to 60 |  | 
CS(=O)(=O)c1ccc(-c2cnn(-c3cccc(Cl)c3)c(=O)c2Cc2cccc(F)c2)cc1 [Example 241, 2-(3-Chlorophenyl)-4-(3-fluorobenzyl)-5-[4-(methylsulfonyl)phenyl]-3(2H)-pridazinone] | 0 |  |  | 7.32 | 142 to 143 | 7.55 | 
CC(C)CCc1c(-c2ccc(S(C)(=O)=O)c(F)c2)cnn(-c2ccc(F)c(Cl)c2)c1=O [Example 252, 2-(3-Chloro-4-fluorophenyl)-4-(3-methylbutyl)-5-[3-fluoro-4-(methylsulfonyl)phenyl]-3(2H)-pyridazinone] | 0 | 87 |  | 7.36 | 102 to 104 |  | inhibition at 0.01 µM [2]: 26%
CC(C)COc1c(-c2ccc(S(C)(=O)=O)cc2)cnn(CC(F)(F)F)c1=O [Example 278, 2-(2,2,2-Trifluoroethyl)-4-(2-methylpropoxy)-5-[4-(methylsulfonyl)phenyl]-3(2H)-pyridazinone] | 36 | 91 | 96 | 7.15 | 108 to 110 |  | 
CC1(COc2c(-c3ccc(S(C)(=O)=O)cc3)cnn(CC(F)(F)F)c2=O)CC1 [Example 279] | 0 | 31 | 60 | 6.41 | 98 to 99 |  | 
CS(=O)(=O)c1ccc(-c2cnn(CC(F)(F)F)c(=O)c2SC2CCCCC2)cc1 [Example 287, 2-(2,2,2-Trifluoroethyl)-4-(cyclohexylthio)-5-[4-(methylsulfonyl)phenyl]-3(2H)-pyridazinone] | 0 | 25 | 79 | 6.80 | 165 to 167 |  | inhibition at 10 µM [2]: 93%
C=Cc1ccc(-c2c(-c3ccc(S(C)(=O)=O)cc3)cnn(Cc3ccccc3)c2=O)cc1 [Example 322, 2-Benzyl-4-(4-vinylphenyl)-5-[4-(methylsulfonyl)phenyl]-3(2H)-pridazinone] | 39 |  |  | 7.59 |  | 7.24 | inhibition at 10 µM ([1]; 10 μM, read-out: RHUCX1 % Inh. at Dose): 54%
CS(=O)(=O)c1ccc(-c2cnn(Cc3ccccc3)c(=O)c2-c2ccc(C(F)(F)F)cc2)cc1 [Example 323, 2-Benzyl-4-(4-trifluormethylphenyl)-5-[4-(methylsulfonyl)phenyl]-3(2H)-pyridazinone] |  |  |  |  |  | 6.44 | RHUCX1 % Inh. at Dose (μM) ([1]; 100 μM): 1 @ 100%; Wish % Inhib. at Dose (μM) ([3]; 0.01 μM): 57 @ 0.01%
CN(C)c1cccc(Oc2c(-c3ccc(S(C)(=O)=O)cc3)cnn(-c3cccc(Cl)c3)c2=O)c1 [Example 344, 2-(3-Chlorophenyl)-4-[3-(dimethylamino)phenoxy]-5-[4-(methylsulfonyl)phenyl]-3(2H)-pyridazinone] | 16 |  |  | 7.00 | 191 to 193 | 6.05 | 
COc1ccc(Oc2c(-c3ccc(S(C)(=O)=O)cc3)cnn(-c3cccc(Cl)c3)c2=O)cc1 [Example 345, 2-(3-Chloroophenyl)-4-(4-methoxyphenoxy)-5-[4-(methylsulfonyl)phenyl]-3(2H)-pyridazinone] | 0 |  |  | 7.52 | 182 to 184 | 6.62 | 
CS(=O)(=O)c1ccc(-c2cnn(-c3cccc(Cl)c3)c(=O)c2Sc2ccccn2)cc1 [Example 358, 2-(3-Chlorophenyl)-4-(2-pyridylthio)-5-[4-(methylsulfonyl)phenyl]-3(2H)-pyridazinone] | 30 |  |  |  | 110 to 114 | 5.61 | inhibition at 0.1 µM [3, 5]: 0%; inhibition at 1 µM [3, 5]: 69%
NS(=O)(=O)c1ccc(-c2cnn(CC=C(F)F)c(=O)c2-c2ccc(F)cc2)cc1F [Example 408] | 0 |  |  | 7.54 | 180 to 183 | 6.55 | 
CC(C)=CCCOc1c(-c2ccc(S(N)(=O)=O)cc2)cnn(-c2ccc(F)c(F)c2)c1=O [Example 410] |  |  |  | 7.28 |  |  | RHUCX1 % Inh. at Dose (μM) ([1]; 10 μM): 1 @ 10%; RHUCX1 % Inh. at Dose (μM) ([1]; 100 μM): 48 @ 100%; RHUCX2 % Inh. at Dose (μM) ([2]; 0.017 μM): 47 @ 0.017%; RHUCX2 % Inh. at Dose (μM) ([2]; 0.035 μM): 67 @0 .035%
CC(C)CCCOc1c(-c2ccc(S(C)(=O)=O)cc2)cnn(-c2ccc(F)cc2)c1=O [Example 414, 2-(4-Fluorophenyl)-4-(4-methylpentyloxy)-5-[4-(methylsulfonyl)phenyl]-3(2H)-pyridazinone] | 0 | 76 | 87 |  | 123 to 125 |  | inhibition at 0.1 µM [3, 5]: 46%; inhibition at 1 µM [3, 5]: 54%
COC(Cn1ncc(-c2ccc(S(C)(=O)=O)cc2)c(-c2ccc(F)cc2)c1=O)c1ccccc1 (stereo not shown) [Example 442, 2-(2-Methoxy-2-phenylethyl)-4-(4-fluorophenyl)-5-[4-(methylsulfonyl)phenyl]-3(2H)-pyridazinone] | 55 | 90 |  | 6.38 | 135 to 137 |  | inhibition at 0.01 µM [2]: 56%

Reference: US20020028938A1, “Prostaglandin endoperoxide H synthase biosynthesis inhibitors” (priority 1997, published 2002)
